pIC50: −log10 of the molar value. Read-outs that look alike come from different tables or passages of the source.
Experiments:
[1] = system: bladder cancer cell lines; experiment: Cell based assay, cell viability (CellTiter-Glo), bladder cancer cell lines; conditions: 72 hours treatment, 0 to 2 μM, CellTiter-Glo
Outline: (§1)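 Read-out is ATP-dependent luminescence (CellTiter-Glo) taken after 72 h of exposure to compound at final concentrations from 0 to 2 μM. Cells were plated 24 h beforehand.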

[2] = system: prostate cancer cell lines (e.g. DU145/TXR); experiment: Cell based assay, cell viability (CellTiter-Glo), prostate cancer cell lines; conditions: Homo sapiens, 72 hours treatment, final concentration 0 to 2 μM
Outline: as §1

melanoma cell lines = experiment: Cell based assay, cell viability (CellTiter-Glo), melanoma cell lines; conditions: Homo sapiens; LOX-IMVI cell line
Outline: as §1

liver cancer cell lines = experiment: Cell based assay, cell viability (CellTiter-Glo), liver cancer cell lines; conditions: Homo sapiens, SK-HEP1; SK-HEP-1 cell line
Outline: as §1

[3] = 253J cells, read-out: IC50, bladder cancer cell line 253J
[4] = 5637 cells, read-out: IC50, bladder cancer cell line 5637
[5] = Homo sapiens, T-24, T24 cells, read-out: IC50, bladder cancer cell line T24
[6] = Homo sapiens, UMUC3, UM-UC-3 cells, read-out: IC50, bladder cancer cell line UM-UC-3
[7] = Homo sapiens, J82 cells, read-out: IC50, bladder cancer cell line J82
[8] = Homo sapiens, KU-19-19 cells, read-out: IC50, bladder cancer cell line KU-19-19
[9] = MBT-2 cells, read-out: IC50, bladder cancer cell line MBT-2
[10] = CWR22 cells, read-out: IC50, prostate cancer cell line CWR22
[11] = DU-145, DU145/TXR cells, read-out: IC50, prostate cancer cell line DU145/TXR
[12] = DU-145, DU145 cells, read-out: IC50, prostate cancer cell line DU145
[13] = LNcap cells, read-out: IC50, prostate cancer cell line LNcap
[14] = PC-3 cells, read-out: IC50, prostate cancer cell line PC-3

| SMILES | pIC50 [1, 3] | pIC50 [1, 4] | pIC50 [1, 5] | pIC50 [1, 6] | pIC50 [1, 7] | pIC50 [1, 8] | pIC50 [1, 9] | pIC50 [2, 10] | pIC50 [2, 11] | pIC50 [2, 12] | pIC50 [2, 13] | pIC50 [2, 14] | pIC50 (melanoma cell lines) | pIC50 (liver cancer cell lines) |
| --- | --- | --- | --- | --- | --- | --- | --- | --- | --- | --- | --- | --- | --- | --- |
| CC(=O)c1c(SCc2ccc([N+](=O)[O-])cc2)[nH]c2c(Br)ccc(Cl)c2c1=O [Compound 32, 3-acetyl-8-bromo-5-chloro-2-((4-nitrobenzyl)thio)quinolin-4(1H)-one] | < 5.70 | < 5.70 | < 5.70 | < 5.70 | < 5.70 | < 5.70 | < 5.70 | < 5.70 | < 5.70 | < 5.70 | < 5.70 | < 5.70 | < 5.70 | < 5.70 |
| CC(=O)c1c(SCc2ccccc2)n(C(=O)c2ccc(Br)cc2)c2c(Br)ccc(Cl)c2c1=O [Compound 23, 3-acetyl-2-(benzylthio)-8-bromo-1-(4-bromobenzoyl)-5-chloroquinolin-4(1H)-one] | < 5.70 | < 5.70 | < 5.70 | < 5.70 | < 5.70 | < 5.70 | < 5.70 | < 5.70 | < 5.70 | < 5.70 | < 5.70 | < 5.70 | < 5.70 | < 5.70 |
| O=C(c1c([S+]([O-])Cc2ccc(SC(F)(F)F)cc2)[nH]c2c(Br)ccc(Cl)c2c1=O)C1CC1 (centres unmarked) [Compound 101, 8-bromo-5-chloro-3-(cyclopropanecarbonyl)-2-((4-((trifluoromethyl)thio)benzyl)sulfinyl)quinolin-4(1H)-one] | – | < 5.70 | < 5.70 | – | < 5.70 | – | – | < 5.70 | 5.85 | 5.87 | < 5.70 | < 5.70 | < 5.70 | < 5.70 |

— patent US11464770B2, “Anticancer pharmaceutical composition” (NATIONAL CANCER CENTER, priority 2016, dated 2022)
